Results as given in US8933099B2, “Monocyclic pyridine derivative” (Eisai R&D Management Co., Ltd., priority 2013, dated 2015).

Experiments:
[1] = system: human stomach cancer cell line SNU-16 xenograft; test: Antitumor effect in SNU-16 subcutaneous xenograft model in mice; type: in vivo; details: oral, once a day for 11 days, tumor volume last day
Description: Human stomach cancer cell line SNU-16, which had been cultured in an RPMI-1640 medium containing 10% FBS, and penicillin and streptomycin, were adjusted to a concentration of 1×10^8 cells/mL with Hanks' Balanced Salt Solution (GIBCO #24020) to prepare a cell suspension, and the suspension was mixed with […] (BD Biosciences, Cat#354234) in a ratio of 1:1 to prepare a cell suspension in a concentration of 5×10^7 cells/ml. The cell suspension was inoculated in a volume of 100 ut into a subcutaneous part of a right flank of nude mice, 6 to 7 weeks of ages (BALB/cAiel-nu/nu, female, Clea Japan Inc.). Seven days after cell inoculation, the shortest diameter and the longest diameter of a tumor in each mouse were measured by using an electronic digital caliper (Digimatie™ caliper, Mitutoyo Corporation), so as to calculate the volume of the tumor in accordance with the following calculation formula: Tumor volume(mm^3)Longest diameter(mm)×Shortest diameter(mm)×Shortest diameter(mm)/2
(§1) On the basis of the volumes of tumors obtained on the first day of administration, the nude mice were grouped such that averages of the tumor volumes were substantially equal among the groups. Each test substance was dissolved in DMSO, Tween 80 was added thereto to prepare a solution in a 10-fold concentration and the thus prepared solution was stored at the freezer before use. Immediately before the administration, the stock solution was diluted with a 5% glucose solution to obtain a final administration solution (in which a ratio in % among DMSO, Tween 80 and the 5% glucose solution was 3.5:6.5:90). Each evaluation sample was orally administered to test substance administration group at a volume of 0.4 mL per 20 g of body weight once a day continuously for 11 days, and in a control group, an administration solvent was orally administered under the same conditions. Incidentally, the experiment was conducted on groups each consisting of 5 mice.
(§2) With respect to each of the control group and test substance administration group, a ratio of the weight measured on the final day to the weight measured on the first day (relative body weight: RBW) was calculated. If a ratio of the RBW of the test substance administration group/the RBW of the control group is 0.9 or mom, the corresponding test substance administration group was defined as a well-tolerated. In the test substance administration group thus defined as well-tolerated, a ratio of the tumor volume of the test substance-dosing group to the tumor volume of the control group obtained on the last day (TIC) (%) was calculated, and shown in Table 21.

[2] = system: human lung cancer cell line NCI-H1581 xenograft; test: Antitumor effect in NCI-H1581 subcutaneous xenograft model in mice; type: in vivo; details: oral, once a day for 11 days, tumor volume last day
Procedure: Human lung cancer cell line NCI-H1581, which had been cultured in RPMI-1640 medium containing 10% FBS, and penicillin and streptomycin, were adjusted to a concentration of 1×10^8 cells/mL with Hanks' Balanced Salt Solution(GIBCO #24020) to prepare a cell suspension, and the suspension was mixed with […] in a ratio of 1:1 to prepare a cell suspension in a concentration of 5×10^7 cells/mL. The cell suspension was inoculated in a volume of 100 μL into a subcutaneous part of a right flank of each of nude mice, 6 to 7 weeks of ages (BALB/cAJcl-nu/nu, female, Clea Japan Inc.). Ten to 11 days after the cell inoculation, the shortest diameter and the longest diameter of a tumor in each mouse were measured by using an electronic digital caliper (Digimatic™ caliper, Mitutoyo Corporation), so as to calculate the volume of the tumor in accordance with the following calculation formula: Tumor volume(mm^3)=Longest diameter(mm)×Shortest diameter(mm)×Shortest diameter(mm)/2
as §1
as §2, with “more,” for “mom,”, “22.” for “21.”

[3] = system: normal human umbilical vein endothelial cells (HUVEC); test: HUVEC growth inhibition assay (VEGF-induced); type: cell-based; details: Homo sapiens, HUVEC, 72 h; growth in the presence of VEGF 10 ng/mL, 3 days; read-out: HUVEC (IC50 (nM))
Procedure: The absorbance value was measured with ENVISION™ (PerkinElmer Co., Ltd.) at 450 nm. The absorbance values of the wells without adding the test substance but with VEGF addition was defined as 100% and the absorbance values of the wells with neither the test substance nor VEGF addition was defined as 0%.

[4] = system: human stomach cancer cell line SNU-16 (FGFR2 gene amplification); test: SNU-16 growth inhibition assay; type: cell-based; details: Homo sapiens, SNU-16, 72 h; cell growth, 3 days, Cell Counting Kit-8; read-out: SNU-16 (IC50 (nM))
Procedure: In this assay, the growth inhibitory activity of a test substance in a human stomach cancer cell line harboring FGFR2 gene amplification is measured.
Then, 10 μL of Cell Counting Kit-8 (Dojindo Laboratories, CK04) was added to each well, and the resultant was incubated for 1 to 2 hours in a 5% CO2 incubator (37° C.) to cause a color reaction. The absorbance value was measured with ENVISION™ (PerkinElmer Co., Ltd.) at 450 nm.

FGFR1 protein = FGFR1 protein (Homo sapiens (Human), UniProt P11362); test: biochemical
Chain of FGFR1 protein (P11362 22-822): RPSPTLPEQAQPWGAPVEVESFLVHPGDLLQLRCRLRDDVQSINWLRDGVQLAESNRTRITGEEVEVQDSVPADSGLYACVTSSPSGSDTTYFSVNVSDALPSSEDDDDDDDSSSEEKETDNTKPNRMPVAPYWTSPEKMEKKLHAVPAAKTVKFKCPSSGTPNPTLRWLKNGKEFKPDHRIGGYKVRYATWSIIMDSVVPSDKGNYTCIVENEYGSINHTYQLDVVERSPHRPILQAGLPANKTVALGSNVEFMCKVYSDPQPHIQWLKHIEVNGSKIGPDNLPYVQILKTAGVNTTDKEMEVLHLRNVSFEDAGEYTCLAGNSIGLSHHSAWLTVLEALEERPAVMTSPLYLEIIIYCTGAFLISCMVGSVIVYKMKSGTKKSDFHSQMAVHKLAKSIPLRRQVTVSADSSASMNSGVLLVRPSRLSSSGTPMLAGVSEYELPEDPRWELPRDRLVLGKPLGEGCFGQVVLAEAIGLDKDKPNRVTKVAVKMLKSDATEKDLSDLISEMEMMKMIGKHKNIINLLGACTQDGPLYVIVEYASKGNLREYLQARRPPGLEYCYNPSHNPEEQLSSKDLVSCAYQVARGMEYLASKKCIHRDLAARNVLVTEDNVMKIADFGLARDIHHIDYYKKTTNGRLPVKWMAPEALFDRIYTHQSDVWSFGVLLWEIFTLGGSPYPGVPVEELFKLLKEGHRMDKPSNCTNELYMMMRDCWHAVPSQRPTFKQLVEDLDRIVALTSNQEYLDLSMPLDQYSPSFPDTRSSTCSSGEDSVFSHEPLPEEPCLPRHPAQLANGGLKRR

SMILES	T/C (%) ([1]; 6.25 mg/kg)	T/C (%) ([1]; 12.5 mg/kg)	T/C (%) ([1]; 25 mg/kg)	T/C (%) ([1]; 50 mg/kg)	T/C (%) ([2]; 6.25 mg/kg)	T/C (%) ([2]; 12.5 mg/kg)	T/C (%) ([2]; 25 mg/kg)	T/C (%) ([2]; 50 mg/kg)	IC50 [3] [nM]	IC50 [4] [nM]	IC50 (FGFR1 protein) [nM]
CNC(=O)n1ccc2cc(Oc3ccnc(NC(=O)c4ccc(C5CCN(C)CC5)cc4)c3)c(OCCOC)cc21 [Example 21, 6-(2-Methoxyethoxy)-N-methyl-5-((2-(4-(1-methylpiperidin-4-yl)benzamide)pyridin-4-yl)oxy)-1H-indole-1-carboxamide]	49	26	16	7	36	18	10	6			
CNC(=O)n1ccc2cc(Oc3ccnc(NC(=O)c4ccc(C5CCNCC5)cc4)c3)c(OC)cc21 [Example 1, 6-Methoxy-N-methyl-5-((2-(4-(piperidin-4-yl)benzamide)pyridin-4-yl)oxy)-1H-indole-1-carboxamide]									98.7	7.5	9.8
CCN1CCC(c2ccc(C(=O)Nc3cc(Oc4cc5ccn(C(=O)NC)c5cc4OC)ccn3)cc2)CC1 [Example 2, 5-((2-(4-(1-Ethylpiperidin-4-yl)benzamide)pyridin-4-yl)oxy)-6-methoxy-N-methyl-1H-indole-1-carboxamide]	51	28	18		36	19	11				
CCOc1cc2c(ccn2C(=O)NC)cc1Oc1ccnc(NC(=O)c2ccc(C3CCN(CC)CC3)cc2)c1 [Example 16, 6-Ethoxy-5-((2-(4-(1-ethylpiperidin-4-yl)benzamide)pyridin-4-yl)oxy)-N-methyl-1H-indole-1-carboxamide]	39	21	15		50	25	15				
